Here are results for 6 molecules from US9604945B2, “Sydnonimines-specific dopamine reuptake inhibitors and their use in treating dopamine related disorders” (priority 2007, dated 2017).

Like-named read-outs stand apart in the source and are kept apart here.

In general, Ki refers to the equilibrium dissociation constant of an inhibitor or competing ligand from its target.

Assay [1] has as its target dopamine transporter (DAT) (Cavia porcellus, UniProt H0WCX4). Put plainly: Dopamine transporter binding assay [3H]WIN 35,428. Also on record: species or system Guinea Pig. The conditions noted are these: for inhibition at 10 µM: read-out: INH at 10 μM DAT. Here is the method: DAT inhibition activity was tested according to the procedure described by J. Javitz et al., Mol. Pharmacol., 26: 35-44 (1984). The test results for a number of representative compounds of the invention are reported hereinbelow.
I. Dopamine Transporter Binding Assay [3H]WIN 35,428
• This assay was carried out according to the procedure described by Javitch, J. J. et al., Mol. Pharmacol. 26: 35-44; 1984
A. Tissue Preparation (Prepare all Solutions on Ice) • 1. Thaw frozen brains from male Guinea Pigs (in assay buffer) and place in 50 mM TRIS-HCl (pH 7.4 at 25° C. with 120 mM NaCl). Isolate striatum. • 2. Use a Polytron to homogenize tissue in 20 vols. (w/v) of 50 mM Tris-HCl (pH 7.4 at 25° C. with 120 mM NaCl). • 3. Centrifuge homogenate at 48,400×g for approximately 10 minutes at 4° C. Discard supernatant. • 4. Wash pellet an additional time as described in steps 2 and 3. • 5. Store pellet on ice until needed for binding assay. • 6. Using a Polytron (setting 5; approximately 10 seconds) resuspend pellet in 50 mM Tris-HCl (pH 7.4 at 25° C. with 120 mM NaCl) to an initial concentration of 10 mg/ml (original wet weight), such that the final concentration is 8 mg/ml or 4.0 mg tissue/tube.
B. Binding Reaction • 1. Each tube receives the following components: • 50 ul drug or vehicle • 50 ul [3H]-WIN 35,428 • 400 ul tissue suspension. • 2. Initiate binding reaction with the addition of tissue, and incubate for 120 minutes at 0° C. (on ice). • 3. Terminate binding reaction by rapid filtration of tube contents onto untreated Whatman GF/C filters. • 4. Rinse the assay tubes once with ice cold 50 mM TRIS HCl (pH 7.4 at 25° C. with 120 mM NaCl, BSA), then rapidly rinse the filters with 6×1 mls/tube of the same wash buffer. • 5. Radioactivity trapped onto the filters is assessed using LSM machine. Let sit for 3 hours in scint cocktail.
C. Dopamine Tranasporter Binding Assay
Materials and Reagents • 1. [3H]-WIN 35-428 is diluted to a concentration of 60 nM in 50 mM TRIS HCl (pH 7.4 at 25° C. with 120 mM NaCl). Thus, the final ligand concentration is 6 nM. • 2. Non-specific binding is defined as that remaining in the presence of 1×10^-6 M GBR12909 (room temperature cabinet). GBR12909 MW=523.5 g/mol. Will solubilize in 4% DMSO (sonicate 15 minutes). Aliquots can be used (1E-3). • 3. The reference compound for the assay is GBR12909 and is diluted in 4% DMSO and is then run at the following final concentrations: 1×10^−10, 5×10^−10, 2×10^−9, 5×10^−9, 1×10^−8, 2×10^−8, 5×10^−8, 1×10^−7, 2×10^−7, 5×10^−7, 1×10^−6, 5×10^−6. • 4. The positive control GBR12909 and is run at the final concentrations of: 2×10-8, 1×10^−7, 5×10^−7M. • 5. The Kd for the receptor is 28.0 nM. Buffers

For assay [2], the target named is Norepinephrine Transporter (Human Recombinant) (Homo sapiens (Human), UniProt P23975). Kind of assay: Norepinephrine transporter (human recombinant) binding assay, [3H]-Nisoxetine. The conditions noted are these: for inhibition at 10 µM: read-out: INH at 10 μM NET. The protocol:
II: Norepinephrine Transporter (Human Recombinant) Binding Assay • This assay was carried out in accordance with the procedure described by Raisman, R, et al. Eur. Jrnl. Pharmacol. 78: 345-351 (1982) with modifications. See also, Langer, S., et al., Eur. Jrnl. Pharmacol, 72: 423-4 (1981). Tissue Preparation • 1. hrNET (Receptor Biology; RBNET) is diluted in assay buffer to 2.5 microunits/ml, so that each tube receives 0.5 microunits, or 2 microunits/ml. • NOTE: 100 microassays, add 20 mis of buffer. Binding Reaction • 1. Each tube receives the following components: • 25 ul drug or vehicle • 25 ul [^3H]-Nisoxetine • 200 ul tissue suspension. • 2. Initiate binding reaction with the addition of tissue, and incubate at room temperature for 1 hour. • 3. Terminate binding reaction by rapid filtration of tube contents onto 0.1% PEI treated GF/C filters (TopCount). • 4. Rinse the assay tubes once with ice cold 50 mM NaCl, then rapidly rinse the filters with 6×1 ml/tube of the same wash buffer. • 5. Radioactivity trapped onto the filters is assessed using liquid scintillation spectrophotometer after soaking the filters for at least 1 hour in scintillation cocktail. Materials and Reagents • 1. The receptor source is human recombinant/CHO. • 2. [^3H]-Nisoxetine, diluted to a concentration of 10 nM in assay buffer, is used as the radioligand. Thus, the final ligand concentration is 1 nM. • 3. Non specific binding is defined as that remaining in the presence of 1×10^−6M desipramine (MW=302.8) (Make fresh: in bag with dessicating rocks 1, dissolves in water 1E-3). • 4. The reference compound for the assay is desipramine. Desimpramine is run at following final concentrations: • 1×10^−10, 2×10^−10, 5×10^−10, 1×10^−9, 2×10^−9, 5×10^−9, 1×10^−8, 2×10^−8, 5×10^−8, 1×10^−7, 2×10^−7, 5×10^−7M • 5. The positive control is any of the above run at the final concentrations of: • 1×10^−9, 5×10^−9, 2×10^−8 M. • 6. The Kd for the receptor is 3 nM. Buffers

For assay [3] the following is noted: in vivo; cited from earlier work.

Sequence of dopamine transporter (DAT) (H0WCX4 1-619): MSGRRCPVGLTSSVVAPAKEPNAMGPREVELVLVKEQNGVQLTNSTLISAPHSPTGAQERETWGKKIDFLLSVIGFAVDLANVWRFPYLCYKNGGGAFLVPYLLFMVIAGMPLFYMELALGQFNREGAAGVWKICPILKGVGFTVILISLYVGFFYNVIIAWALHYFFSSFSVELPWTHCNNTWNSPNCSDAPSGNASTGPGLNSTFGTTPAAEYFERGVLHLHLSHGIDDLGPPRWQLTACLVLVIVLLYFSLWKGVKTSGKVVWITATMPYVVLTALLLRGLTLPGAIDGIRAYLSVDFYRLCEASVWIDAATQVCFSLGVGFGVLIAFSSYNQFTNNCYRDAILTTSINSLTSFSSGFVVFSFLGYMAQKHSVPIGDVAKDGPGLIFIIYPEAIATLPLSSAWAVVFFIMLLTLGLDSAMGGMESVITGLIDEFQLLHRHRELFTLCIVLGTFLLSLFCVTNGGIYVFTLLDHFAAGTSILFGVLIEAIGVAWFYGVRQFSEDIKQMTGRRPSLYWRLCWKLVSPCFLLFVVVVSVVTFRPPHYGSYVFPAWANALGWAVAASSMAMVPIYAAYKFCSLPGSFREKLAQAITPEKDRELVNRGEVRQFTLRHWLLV

In assay [1], `O=C(/N=c1\[cH-][n+](Cc2ccccc2)no1)Nc1ccccc1` [Example 1, N-phenylcarbamoyl-3-(benzyl)-sydonimine] showed a Ki of 36 nM. Also, the inhibition at 10 µM in assay [1] is 90%; in assay [2], 0%.
As to `O=C([N-]c1c[n+](Cc2ccc(C(=O)O)cc2)no1)Nc1ccccc1` [Example 2], the “INH at 10 μM DAT” value in assay [1] (10 μM) is 92%. The Ki in assay [1] (read-out: Ki DAT) came out at 2.7 nM. The “INH at 10 μM NET” value in assay [2] (10 μM) is reported as 11%.
`O=C(/N=c1\[cH-][n+](CCc2ccccc2)no1)Nc1ccc(Cl)c(Cl)c1` [Example 4, N-(3′,4′-dichlorophenyl) carbamoyl-3-phenethyl sydnonimine]: in assay [1], affinity was put at a Ki of 40 nM and the inhibition at 10 µM stood at 99%. The inhibition at 10 µM in assay [2] is 2%.
Taken in the same sequence, the figures for `O=C(/N=c1\[cH-][n+](CCc2ccc([N+](=O)[O-])cc2)no1)Nc1ccc([N+](=O)[O-])c([N+](=O)[O-])c1` [Example 5, N-(3′,4′-dinitrophenyl)carbamoyl-3-p-nitrophenethyl sydnonimine] were 100 nM, 85% and 4%.
For `O=C(/N=c1\[cH-][n+](Cc2ccc(F)cc2)no1)Nc1ccccc1` [Example 7, N-phenylcarbamoyl-3-(p-fluoro-benzyl)-sydnonimine], in assay [1], affinity was put at a Ki of 0.46 nM and the inhibition at 10 µM worked out at 99%. Besides, the inhibition at 10 µM in assay [2] amounted to 15%.
As to `CC(Cc1ccccc1)[n+]1cc([N-]C(=O)Nc2ccccc2)on1` (stereo not shown) [sydnocarb, 3-(1-methyl-2-phenylethyl)-N-(phenylcarbomoyl)sydnone imine], the “Effect on locomotor activity in open field studies” value in assay [3] is recorded as “locomotor stimulating effect”.
